We go through one substance from US20200384116A1, “SELF-ASSEMBLING VERTEPORFIN AMPHIPHILES (SAVA) FOR LOCAL CANCER THERAPY” (THE JOHNS HOPKINS UNIVERSITY, priority 2016, published 2020).

What all share (format): cell-based
Assay [1] concerns SW480, PANC-1, MDA-MD-231, MDA-MD-468 and HELA cell lines. The assay can be described thus: MTT proliferation assay, non-CNS tumor cell lines. As to conditions: 12.5 μM, 5 or 6 days, in words. As to the method:
(§1) Cells tested were subjected to the following protocol: Day 1: 7000 cells per well were seeded in a 96-well plate. Day 3: cells were treated with 12.5 μM of Verteporfin (treatment group) and its equivalent DMSO concentration (control group) in 200 μl of media/well. Proliferation was assessed using MTT at Day 8, 9 using the following method:
(§2) MTT stock solution (5 mg/ml) is added to each culture being assayed to equal one-tenth the original culture volume and incubated for 4 hr. At the end of the incubation period the medium is removed the converted dye is solubilized with 100% isopropanol. Absorbance of converted dye is measured at a wavelength of 570 nm.
The cell lines SW480 (colon adenocarcinoma), PANC-1 (pancreatic cancer), MDA-MD-231 (breast adenocarcinoma), MDA-MD-468 (metastatic breast carcinoma triple negative), and HELA (cervical carcinoma) were treated with 12.5 μM of the SAVA composition, Ver-RGDR, or DMSO (solvent control) for 5 days (FIG. 5a) or 6 days (FIG. 5b) in culture. Cell proliferation was then assessed using the MTT protocol. […] P-values: All cell lines tested at day 5 and 6 had p<0.0001 compared to their corresponding DMSO control. The results were statistically significant.
(In general: Formazan colour is commonly taken as a measure of viable cells.)

Assay [2] has as its system malignant meningioma cell line KT21-MG1. The assay can be described thus: MTT cell survival, KT21-MG1. As to the method:
(§3) Cells tested were subjected to the following protocol: Day 1: 7000 cells per well were seeded in a 96-well plate. […]
as §2
(§4) The malignant meningioma cell lines KT21-MG1 (FIG. 7), IOMM-Lee (FIG. 8), the primary patient-derived GBM cell lines, JHGB612 and GBM1A, and a patient-derived primary chordoma cell line, JHC7 (FIG. 9) were all tested with a SAVA composition of the present invention, using the protocol of Example 3. All should significant dose-dependent effect on cell survival when compared to controls.

For assay [3], the system named is primary patient-derived GBM cell line JHGB612. The assay can be described thus: MTT cell survival, JHGB612. The note with it: dose-dependent, vs controls. As for the experimental part: as §1, §2, §4
The subject of assay [4] is primary patient-derived GBM cell line GBM1A. The assay can be described thus: MTT cell survival, GBM1A. As to conditions: dose-dependent, vs controls. As for the experimental part: as §1, §2, §4
For assay [5], the system named is malignant meningioma cell line IOMM-Lee. The assay can be described thus: MTT cell survival, IOMM-Lee. As to the method:
as §3, §2, §4

Assay [6] relates to patient-derived primary chordoma cell line JHC7. Description: MTT cell survival, JHC7. The note with it: dose-dependent, vs controls. As for the experimental part:
as §1, §2, §4

Regarding verteporfin, the “proliferation of non-CNS tumor cells” value in assay [1] is recorded as “decreases proliferation”. Moreover, the cell survival entry in assay [2] (3 days of treatment), in assay [2] (5 days of treatment), in assay [5] (3 days of treatment) and in assay [5] (5 days of treatment) was “decreases cell survival” each time. The “effect on proliferation and cell survival” value in assay [3] was “profound dose dependent effect on glioblastoma proliferation and cell survival”; in assay [4] it was “profound dose dependent effect on glioblastoma proliferation and cell survival”. Moreover, in assay [6], the “effect on cell survival and proliferation” value was “dose dependent effect on chordoma cell survival and proliferation”.
